Test results: US20080063720A1, “Delivery System” (priority 2004, published 2008)

Columns and labels:
[1] = system: THP-1 differentiated macrophages; assay: Brefeldin A effect on intranuclear accumulation of quantum dots; type: cell-based, human; details: Brefeldin A 20 μg/ml for 30 min, washed out before particles were added
Description: In the studies referred to in FIGS. 1-10, Human THP-1 monocytes, the transformed epithelial cell lines HT-29, HCT-116 and T cell lymphoma cell line HUT-78 were obtained from the European Collection of Animal Cell Cultures (ECACC, Salisbury, UK). Cells were grown in RPMI 1640 medium supplemented with 10% heat-inactivated fetal bovine serum (FBS), 2 mM L-glutamine/L, 100 μg penicillin/ml and […], and incubated at 37° C. in 5% CO2. To induce monocyte to macrophage differentiation, THP-1 cells were cultured in the presence of 100 ng/ml PMA for 72 h.
Prior to incubation with CdTe particles THP-1 differentiated macrophages were incubated with the Golgi complex disrupter Brefeldin A for 30 min at 20 μg/ml. Following a wash out, green 2.2 nm size CdTe particles were added to the cells.

[2] = system: human primary macrophage cells; assay: Thapsigargin effect on intranuclear accumulation of quantum dots; type: cell-based; details: thapsigargin 100 mM for 30 min, washed out before incubation with particles
Description: Nuclear import inhibitor thapsigargin ([…]) was added to the cells for 30 min and subsequently washed out with pre-warmed culture medium prior to incubation with 2.2 nm size (green emitting) CdTe particles.

SMILES	effect on distribution and intranuclear accumulation of 2.2 nm green CdTe particles [1]	effect on intranuclear accumulation of 2.2 nm green CdTe particles [2]
C[C@H]1CCC/C=C/[C@@H]2C[C@H](O)C[C@H]2[C@H](O)/C=C/C(=O)O1 [brefeldin A, Brefeldin A]	dispersion of quantum dots and partial block of intranuclear accumulation	
C/C=C(/C)C(=O)O[C@H]1C(C)=C2[C@H]([C@@H]1OC(=O)CCCCCCC)[C@@](C)(OC(C)=O)C[C@H](OC(=O)CCC)[C@@]1(O)[C@H]2OC(=O)[C@@]1(C)O [thapsigargin]		blockade of intranuclear accumulation
